From patent publication US8536198B2, “Piperidine derivatives as modulators of chemokine receptor activity” (Bristol-Myers Squibb Company, priority 2007, dated 2013)
pIC50: −log10 of the molar value.

Each compound was assayed against CCR1 (Homo sapiens (Human), UniProt P32246) (assay: CCR1 Ligand Binding Scintillation Proximity Assay (SPA)). Conditions: [125I]-MIP-1α competition binding on THP-1 monocytic leukemia cells, 12 h at room temperature.
Chain of CCR1 (P32246 whole entry): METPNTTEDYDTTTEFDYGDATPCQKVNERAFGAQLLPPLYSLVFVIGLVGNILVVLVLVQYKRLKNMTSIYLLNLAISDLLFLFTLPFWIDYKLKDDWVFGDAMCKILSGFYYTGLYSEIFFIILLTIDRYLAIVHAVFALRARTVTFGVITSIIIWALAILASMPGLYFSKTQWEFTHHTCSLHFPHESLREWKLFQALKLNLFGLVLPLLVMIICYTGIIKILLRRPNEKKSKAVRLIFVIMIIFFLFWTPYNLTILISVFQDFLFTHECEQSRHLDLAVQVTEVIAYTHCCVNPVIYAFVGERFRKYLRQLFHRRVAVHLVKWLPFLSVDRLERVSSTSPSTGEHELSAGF
Method: CCR1 Ligand Binding Scintillation Proximity Assay (SPA)
For radioligand competition studies, a final concentration of 1×10^5 THP-1 monocytic leukemia cells are combined with 100 μg of LS WGA PS beads (Amersham, Cat.#: RPNQ 0260) in 40 μl of assay buffer (RPMI 1640 without phenol red, 50 mM HEPES, 5 mM MgCl2, 1 mM CaCl2, 0.1% BSA). The THP-1 cell/bead mixture is added to each well of a 384-well assay plate (PerkinElmer, Cat. #:6007899) containing test compound in 3-fold serial dilution, with final concentrations ranging from 8 μM to […]. A final concentration of 0.1 nM [^125I]-MIP-1α (PerkinElmer, Cat. # NEX298) in 20 μl assay buffer is added to the reaction. Sealed assay plates are incubated at room temperature for 12 h then analyzed by LEADseeker™.
The competition data of the test compound over a range of concentrations is plotted as percentage inhibition of radioligand specific bound in the absence of test compound (percent of total signal). After correcting for non-specific binding, IC50 values are determined. The IC50 value is defined as the concentration of test compound needed to reduce [^125I]-MIP-1α specific binding by 50% and is calculated using the four parameter logistic equation to fit the normalized data. The Ki values are determined by application of the Cheng-Prusoff equation to the IC50 values, where Ki=IC50/(1+ ligand concentration/Kd) The Kd of [^125I]-MIP-1α in THP-1 cells is 0.1 nM. Each experiment is run in duplicate.
`CC1(C)CN(C(=O)[C@H]2CCC[C@H]2NC(=O)Nc2ccccc2)CC[C@]1(O)c1ccc(Cl)cc1` [Example 9, 1-((1R,2S)-2-((S)-4-(4-Chlorophenyl)-4-hydroxy-3,3-dimethylpiperidine-1-carbonyl)cyclopentyl)-3-phenylurea] was tested, and the pIC50 was 7.94. In the case of `CC1(C)CN(C(=O)[C@H]2CCC[C@H]2NC(=O)c2cccc(C(N)=O)c2)CC[C@]1(O)c1ccc(Cl)cc1` [Example 89], the pIC50 was 8.74. `COC(=O)N[C@@H]1CCCC[C@@H]1C(=O)N1CC[C@](O)(c2ccc(Cl)cc2)C(C)(C)C1` [Example 41] showed a pIC50 of 6.00. For `CC1(C)CN(C(=O)[C@H]2CCC[C@H]2NC(=O)c2cccc(S(N)(=O)=O)c2)CC[C@]1(O)c1ccc(Cl)cc1` [Example 80], the pIC50 was 9.00. `CC1(C)CN(C(=O)[C@H]2CCCC[C@H]2NC(=O)[C@H](O)c2ccccc2)CC[C@]1(O)c1ccc(Cl)cc1` [Example 67] showed a pIC50 of 6.07. With `CC1(C)CN(C(=O)[C@H]2CCCC[C@H]2NC(=O)c2ccccc2)CC[C@]1(O)c1ccc(Cl)cc1` [Example 2, N-((1R,2S)-2-((S)-4-(4-Chlorophenyl)-4-hydroxy-3,3-dimethylpiperidine-1-carbonyl)cyclohexyl)benzamide] the pIC50 was 8.68. In the case of `CC1(C)CN(C(=O)[C@H]2CC(=O)CC[C@H]2NC(=O)c2ccccc2)CC[C@]1(O)c1ccc(Cl)cc1` [Example 11, N-((1R,2S)-2-((S)-4-(4-Chlorophenyl)-4-hydroxy-3,3-dimethylpiperidine-1-carbonyl)-4-oxocyclohexyl)benzamide], the pIC50 was 7.76. `C[C@@H](O)CNC(=O)N[C@@H]1CCCC[C@@H]1C(=O)N1CC[C@](O)(c2ccc(Cl)cc2)C(C)(C)C1` [Example 76] was tested, and the pIC50 was 7.84. With `CC1(C)CN(C(=O)[C@H]2CCCC[C@H]2NC(=O)Nc2ccccc2)CC[C@]1(O)c1ccc(Cl)cc1` [Example 35] the pIC50 was 7.73. Compound `CC1(C)CN(C(=O)[C@H]2CCCC[C@H]2NC(=O)c2cccc(C(=O)O)c2)CC[C@]1(O)c1ccc(C#N)cc1` [Example 100, 3-((1R,2S)-2-((S)-4-(4-Cyanophenyl)-4-hydroxy-3,3-dimethylpiperidine-1-carbonyl)cyclohexylcarbamoyl)benzoic acid] has a pIC50 of 7.95. With `CC1(C)CN(C(=O)[C@H]2CCCC[C@H]2NC(=O)CO)CC[C@]1(O)c1ccc(Cl)cc1` [Example 61] the pIC50 was 6.11. For `CC1(C)CN(C(=O)[C@H]2CCCC[C@H]2NC(=O)CCN2CCCCC2)CC[C@]1(O)c1ccc(Cl)cc1` [Example 58], the pIC50 was 6.03. Compound `C[C@H](NC(=O)N[C@@H]1CCCC[C@@H]1C(=O)N1CC[C@](O)(c2ccc(Cl)cc2)C(C)(C)C1)C(C)(C)O` [Example 106] has a pIC50 of 9.15. With `CC1(C)CN(C(=O)[C@H]2CCCC[C@@]2(C)NC(=O)c2ccccc2)CC[C@]1(O)c1ccc(Cl)cc1` [Example 104] the pIC50 was 6.09. `CC1(C)CN(C(=O)[C@H]2CCC[C@H]2NC(=O)[C@H]2CC[C@@H](O)C2)CC[C@]1(O)c1ccc(Cl)cc1` [Example 84] gave a pIC50 of 8.82. Compound `CC1(C)CN(C(=O)[C@H]2CC3(CC[C@H]2NC(=O)c2ccccc2)OCCO3)CC[C@]1(O)c1ccc(Cl)cc1` [Example 10, N-((7S,8R)-7-((S)-4-(4-Chlorophenyl)-4-hydroxy-3,3-dimethylpiperidine-1-carbonyl)-1,4-dioxaspiro[4.5]decan-8-yl)benzamide] has a pIC50 of 5.97. Work on `CC1(C)CN(C(=O)[C@H]2CCC[C@H]2NC(=O)[C@@H]2CC[C@H](O)C2)CC[C@]1(O)c1ccc(Cl)cc1` [Example 83] yielded a pIC50 of 7.85. `CC1(C)CN(C(=O)[C@H]2CCCC[C@H]2NC(=O)CCc2ccccc2)CC[C@]1(O)c1ccc(Cl)cc1` [Example 60] gave a pIC50 of 7.80. Work on `CC1(C)CN(C(=O)[C@H]2CCC[C@H]2NC(=O)c2cccc(C(=O)O)c2)CC[C@]1(O)c1ccc(Cl)cc1` [Example 85] yielded a pIC50 of 8.80. `CC1(C)CN(C(=O)[C@H]2CCCC[C@H]2NC(=O)[C@@H](O)c2ccccc2)CC[C@]1(O)c1ccc(Cl)cc1` [Example 68] was tested, and the pIC50 was 6.24. `CC1(C)CN(C(=O)[C@H]2CCC[C@H]2NC(=O)C2CCCC2)CC[C@]1(O)c1ccc(Cl)cc1` [Example 86] was tested, and the pIC50 was 8.89. With `CC1(C)CN(C(=O)[C@H]2CCCC[C@H]2NC(=O)c2cncnc2)CC[C@]1(O)c1ccc(Cl)cc1` [Example 57] the pIC50 was 7.73. `CC(C)(C)OC(=O)N[C@@H]1CCC[C@@H]1C(=O)N1CC[C@](O)(c2ccc(Cl)cc2)C(C)(C)C1` [Example 7, tert-Butyl (1R,2S)-2-((S)-4-(4-chlorophenyl)-4-hydroxy-3,3-dimethylpiperidine-1-carbonyl)cyclopentylcarbamate] was tested, and the pIC50 was 7.92.
